Target: T1, human mAChR M1 (Homo sapiens, UniProt P11229)
T1 sequence (P11229 1-460): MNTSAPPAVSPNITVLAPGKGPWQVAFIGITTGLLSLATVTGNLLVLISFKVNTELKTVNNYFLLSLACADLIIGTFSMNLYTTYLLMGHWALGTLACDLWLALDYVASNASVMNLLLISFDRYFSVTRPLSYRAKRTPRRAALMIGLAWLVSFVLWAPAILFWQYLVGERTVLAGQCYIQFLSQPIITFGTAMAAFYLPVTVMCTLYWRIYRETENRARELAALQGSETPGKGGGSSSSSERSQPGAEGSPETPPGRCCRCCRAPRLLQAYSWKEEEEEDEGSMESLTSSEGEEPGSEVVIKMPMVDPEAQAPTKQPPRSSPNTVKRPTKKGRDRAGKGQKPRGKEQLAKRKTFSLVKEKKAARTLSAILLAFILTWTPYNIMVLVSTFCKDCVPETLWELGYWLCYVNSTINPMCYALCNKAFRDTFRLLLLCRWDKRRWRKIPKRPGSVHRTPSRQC
Assay: mAChR M1 cell-based functional assay: calcium mobilization, positive allosteric modulator mode (increase in EC20 acetylcholine response)
Settings: Table 2, human M1; for EC50: read-out: Human M1 EC50; for Emax: read-out: Human M1 Emax (%)
Procedure, shortened: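 Calcium-flux assay in CHO-K1 cells stably expressing human M1, loaded with Fluo-4 AM (50 min, 37 °C) and read at 1 Hz. Compound (11-point, 1:3 series) was added at 4 s, EC20 acetylcholine at 144 s and EC80 at 230 s. PAM activity is the concentration-dependent rise in the EC20 response, fitted with a four-parameter logistic.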

| Compound | EC50 [nM] | Emax [%] |
| --- | --- | --- |
| COCCNC(=O)c1cc(Cc2ccc(-c3cnn(C)c3)nc2)c2sccc2n1 [Compound 342, N-(2-methoxyethyl)-7-[[6-(1-methylpyrazol-4-yl)-3-pyridyl]methyl]thieno[3,2-b]pyridine-5-carboxamide] | 289 | 89.5 |
| Cn1cc(-c2ccc(Cc3cc(C(=O)N[C@H]4CCOC4)nc4ccsc34)cn2)cn1 [Compound 343, 7-[[6-(1-methylpyrazol-4-yl)-3-pyridyl]methyl]-N-[(3S)-tetrahydrofuran-3-yl]thieno[3,2-b]pyridine-5-carboxamide] | 975 | 80.8 |
| Cn1cc(-c2ccc(Cc3cc(C(=O)N[C@@H]4CCOC4)nc4ccsc34)cn2)cn1 [Compound 344, 7-[[6-(1-methylpyrazol-4-yl)-3-pyridyl]methyl]-N-[(3R)-tetrahydrofuran-3-yl]thieno[3,2-b]pyridine-5-carboxamide] | 798 | 85.5 |
| Cn1cc(-c2ccc(Cc3cc(C(=O)N[C@H]4CCCOC4)nc4ccsc34)cn2)cn1 [Compound 347, 7-[[6-(1-methylpyrazol-4-yl)-3-pyridyl]methyl]-N-[(3S)-tetrahydropyran-3-yl]thieno[3,2-b]pyridine-5-carboxamide] | 499 | 82.2 |
| Cn1ccc(-c2ccc(Cc3cc(C(=O)NCC4CCO4)nc4ccsc34)cn2)n1 (stereo not drawn) [Compound 355, 7-[[6-(1-methylpyrazol-3-yl)-3-pyridyl]methyl]-N-(oxetan-2-ylmethyl)thieno[3,2-b]pyridine-5-carboxamide] | 355 | 86.6 |
| Cn1ccc(-c2ccc(Cc3cc(C(=O)NCC4CCOC4)nc4ccsc34)cn2)n1 (stereo not drawn) [Compound 356, 7-[[6-(1-methylpyrazol-3-yl)-3-pyridyl]methyl]-N-(tetrahydrofuran-3-ylmethyl)thieno[3,2-b]pyridine-5-carboxamide] | 390 | 84.8 |
| Cn1ccc(-c2ccc(Cc3cc(C(=O)NC[C@@H]4CCOC4)nc4ccsc34)cn2)n1 [Compound 357] | 458 | 86.5 |
| Cn1ccc(-c2ccc(Cc3cc(C(=O)NCC4CCCCO4)nc4ccsc34)cn2)n1 (stereo not drawn) [Compound 359, 7-[[6-(1-methylpyrazol-3-yl)-3-pyridyl]methyl]-N-(tetrahydropyran-2-ylmethyl)thieno[3,2-b]pyridine-5-carboxamide] | 573 | 83.4 |
| COCC(C)NC(=O)c1cc(Cc2ccc(-c3cnn(C)c3)nc2)c2sccc2n1 (stereo not drawn) [Compound 363, N-(2-methoxy-1-methyl-ethyl)-7-[[6-(1-methylpyrazol-4-yl)-3-pyridyl]methyl]thieno[3,2-b]pyridine-5-carboxamide] | 321 | 85.2 |
| Cn1cc(-c2ccc(Cc3cc(C(=O)NC4CN(C5COC5)C4)nc4ccsc34)cn2)cn1 [Compound 364] | 832 | 83.8 |
| O=C(NC1COC1)c1cc(Cc2ccc(-c3nccs3)cc2)c2sccc2n1 [Compound 365, N-(oxetan-3-yl)-7-[(4-thiazol-2-ylphenyl)methyl]thieno[3,2-b]pyridine-5-carboxamide] | 1350 | 57.9 |

The next compounds have a lower EC50 than those just listed; values first:

| EC50 [nM] | Emax [%] | Compound |
| --- | --- | --- |
| 203 | 74.5 | Cn1cc(-c2ccc(Cc3cc(C(=O)NC4CC(F)(F)C4)nc4ccsc34)cn2)cn1 [Compound 345, N-(3,3-difluorocyclobutyl)-7-[[6-(1-methylpyrazol-4-yl)-3-pyridyl]methyl]thieno[3,2-b]pyridine-5-carboxamide] |
| 266 | 89.4 | Cn1cc(-c2ccc(Cc3cc(C(=O)NC4CC(F)C4)nc4ccsc34)cn2)cn1 (stereo not drawn) [Compound 346, N-(3-fluorocyclobutyl)-7-[[6-(1-methylpyrazol-4-yl)-3-pyridyl]methyl]thieno[3,2-b]pyridine-5-carboxamide] |
| 128 | 85.6 | Cn1cc(-c2ccc(Cc3cc(C(=O)NCC4CCOC4)nc4ccsc34)cn2)cn1 (stereo not drawn) [Compound 348, 7-[[6-(1-methylpyrazol-4-yl)-3-pyridyl]methyl]-N-(tetrahydrofuran-3-ylmethyl)thieno[3,2-b]pyridine-5-carboxamide] |
| 25.4 | 89.8 | Cn1cc(-c2ccc(Cc3cc(C(=O)NC[C@@H]4CCCO4)nc4ccsc34)cn2)cn1 [Compound 349, 7-[[6-(1-methylpyrazol-4-yl)-3-pyridyl]methyl]-N-[[(2S)-tetrahydrofuran-2-yl]methyl]thieno[3,2-b]pyridine-5-carboxamide] |
| 80.5 | 70.5 | Cn1ccc(-c2ccc(Cc3cc(C(=O)NC4CCOCC4)nc4ccsc34)cn2)n1 [Compound 350, 7-[[6-(1-methylpyrazol-3-yl)-3-pyridyl]methyl]-N-tetrahydropyran-4-yl-thieno[3,2-b]pyridine-5-carboxamide] |
| 143 | 89.9 | Cn1ccc(-c2ccc(Cc3cc(C(=O)NC4CC5(COC5)C4)nc4ccsc34)cn2)n1 [Compound 351, 7-[[6-(1-methylpyrazol-3-yl)-3-pyridyl]methyl]-N-(2-oxaspiro[3.3]heptan-6-yl)thieno[3,2-b]pyridine-5-carboxamide] |
| 32.7 | 90.7 | Cn1ccc(-c2ccc(Cc3cc(C(=O)N[C@H]4CCC[C@@H]4O)nc4ccsc34)cn2)n1 [Compound 352, N-[(1S,2S)-2-hydroxycyclopentyl]-7-[[6-(1-methylpyrazol-3-yl)-3-pyridyl]methyl]thieno[3,2-b]pyridine-5-carboxamide] |
| 5.05 | 62.1 | Cn1ccc(-c2ccc(Cc3cc(C(=O)N[C@H]4CCOC[C@@H]4O)nc4ccsc34)cn2)n1 [Compound 353, N-[(3R,4S)-3-hydroxytetrahydropyran-4-yl]-7-[[6-(1-methylpyrazol-3-yl)-3-pyridyl]methyl]thieno[3,2-b]pyridine-5-carboxamide] |
| 14.8 | 64.2 | Cn1ccc(-c2ccc(Cc3cc(C(=O)N[C@H]4CCCC[C@@H]4O)nc4ccsc34)cn2)n1 [Compound 354, N-[(1S,2S)-2-hydroxycyclohexyl]-7-[[6-(1-methylpyrazol-3-yl)-3-pyridyl]methyl]thieno[3,2-b]pyridine-5-carboxamide] |
| 201 | 84.3 | Cn1ccc(-c2ccc(Cc3cc(C(=O)NCC4CCOCC4)nc4ccsc34)cn2)n1 [Compound 358, 7-[[6-(1-methylpyrazol-3-yl)-3-pyridyl]methyl]-N-(tetrahydropyran-4-ylmethyl)thieno[3,2-b]pyridine-5-carboxamide] |
| 38.5 | 88.1 | Cn1cc(-c2ccc(Cc3cc(C(=O)NCC4CCN4)nc4ccsc34)cn2)cn1 (stereo not drawn) [Compound 360, N-(azetidin-2-ylmethyl)-7-[[6-(1-methylpyrazol-4-yl)-3-pyridyl]methyl]thieno[3,2-b]pyridine-5-carboxamide] |
| 114 | 86.9 | Cn1cc(-c2ccc(Cc3cc(C(=O)N[C@@H]4CCCOC4)nc4ccsc34)cn2)cn1 [Compound 361, 7-[[6-(1-methylpyrazol-4-yl)-3-pyridyl]methyl]-N-[(3R)-tetrahydropyran-3-yl]thieno[3,2-b]pyridine-5-carboxamide] |
| 84.9 | 72.4 | Cn1cc(-c2ccc(Cc3cc(C(=O)NC4CCOCC4(C)C)nc4ccsc34)cn2)cn1 (stereo not drawn) [Compound 362, N-(3,3-dimethyltetrahydropyran-4-yl)-7-[[6-(1-methylpyrazol-4-yl)-3-pyridyl]methyl]thieno[3,2-b]pyridine-5-carboxamide] |

From patent publication US11111251B2, “Positive allosteric modulators of the muscarinic acetylcholine receptor M1” (Vanderbilt University, priority 2016, dated 2021)
